Data taken from the supplement of paper PMC10307832.

Key:
Test in all cases: relative viability (nuclei count vs DMSO), 5 days (fraction); higher = more cells survive
BGJ398 + Palbociclib = compound: CCN1CCN(c2ccc(Nc3cc(N(C)C(=O)Nc4c(Cl)c(OC)cc(OC)c4Cl)ncn3)cc2)CC1 [BGJ398] + CC(=O)c1c(C)c2cnc(Nc3ccc(N4CCNCC4)cn3)nc2n(C2CCCC2)c1=O [Palbociclib] (partner 0.5 µM)
Procedure, shortened: (§1)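 Lung cancer cell lines, seeded in 1536-well plates, were treated the following day by pin tool with a single drug or with five library-drug doses (not always all listed) in √10 steps on top of a fixed anchor-drug dose. Cells were fixed and nuclei stained in one step after 5 days, and nuclei were counted. Relative viability is the nuclei count for treated wells divided by that for vehicle wells, reported as medians of duplicate plates.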

BGJ398 + Vorinostat = compound: CCN1CCN(c2ccc(Nc3cc(N(C)C(=O)Nc4c(Cl)c(OC)cc(OC)c4Cl)ncn3)cc2)CC1 [BGJ398] + O=C(CCCCCCC(=O)Nc1ccccc1)NO [Vorinostat] (partner 1 µM)
Procedure, shortened: as §1

[1] = compound: C1=CC2=NC=CN=C2C=C1/C=C/3\C(=O)NC(=O)S3 + CCNC(=O)c1noc(-c2cc(C(C)C)c(O)cc2O)c1-c1ccc(CN2CCOCC2)cc1 [Luminespib] (partner 0.01 µM)
Procedure, shortened: as §1

BGJ398 + OSI-027 = compound: CCN1CCN(c2ccc(Nc3cc(N(C)C(=O)Nc4c(Cl)c(OC)cc(OC)c4Cl)ncn3)cc2)CC1 [BGJ398] + COc1cccc2cc(-c3nc([C@H]4CC[C@H](C(=O)O)CC4)n4ncnc(N)c34)[nH]c12 [OSI-027] (partner 0.5 µM)
Procedure, shortened: as §1

## UMC-11
BGJ398 + Palbociclib; first compound 0.01 µM
  relative viability: 0.327
BGJ398 + Palbociclib; first compound 0.03162 µM
  relative viability: 0.276
BGJ398 + Palbociclib; first compound 0.1 µM
  relative viability: 0.36
BGJ398 + Palbociclib; first compound 0.3162 µM
  relative viability: 0.374
BGJ398 + Palbociclib; first compound 1 µM
  relative viability: 0.351
BGJ398 + Vorinostat; first compound 0.01 µM
  relative viability: 0.363
BGJ398 + Vorinostat; first compound 0.03162 µM
  relative viability: 0.407
BGJ398 + Vorinostat; first compound 0.1 µM
  relative viability: 0.376
BGJ398 + Vorinostat; first compound 0.3162 µM
  relative viability: 0.376
BGJ398 + Vorinostat; first compound 1 µM
  relative viability: 0.382
[1]; first compound 0.02 µM
  relative viability: 0.992
[1]; first compound 0.06325 µM
  relative viability: 1.11
[1]; first compound 0.2 µM
  relative viability: 1.05
[1]; first compound 0.6325 µM
  relative viability: 0.956
[1]; first compound 2 µM
  relative viability: 1.16
BGJ398 + OSI-027; first compound 0.01 µM
  relative viability: 0.494
BGJ398 + OSI-027; first compound 0.03162 µM
  relative viability: 0.449
BGJ398 + OSI-027; first compound 0.1 µM
  relative viability: 0.53
BGJ398 + OSI-027; first compound 0.3162 µM
  relative viability: 0.411
BGJ398 + OSI-027; first compound 1 µM
  relative viability: 0.429
